Values joined by “and” are separate entries in the source; they are usually repeats but may differ in a detail not shown here. Equal entries are not always repeated.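 Protocol summary: plate cells (96-well), add compound at 5 concentrations, incubate 48 h, interpolate endpoints linearly. Abbreviation: GI50, concentration required for 50% inhibition of growth. TGI denotes the concentration required for complete inhibition of growth.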

Among the test systems are SF-268 CNS; K-562 leukemia; EKVX NSCLC; OVCAR-4 ovarian; SK-MEL-28 melanoma; MOLT-4 leukemia; HL-60(TB) leukemia; T-47D breast; A498 renal; NCI-H522 lung.
Assay in all cases: NCI-60 cell line screen, 48 h

For the molecule `CN(C)c1ccc(/C=C\c2ccnc3ccccc23)cc1`, the GI50 was 21.8 µM in the experiment on SF-268 CNS; above 21.1 µM in the experiment with K-562 leukemia; 2.63 µM in the experiment with EKVX NSCLC; 9.77 µM in the experiment on OVCAR-4 ovarian; 21.7 µM in the experiment on SK-MEL-28 melanoma; 14.5 µM in the experiment with MOLT-4 leukemia. In addition, the GI50 in the experiment with HL-60(TB) leukemia is above 20.2 µM; in the experiment on T-47D breast it was 2480 nM; with A498 renal it was 7.57 µM; with NCI-H522 lung, 6.4 µM. For the same molecule, the TGI in the experiment with SF-268 CNS is above 100 µM; in the experiment with K-562 leukemia it was above 100 µM; with EKVX NSCLC, above 37.9 µM; in the experiment on OVCAR-4 ovarian it was above 100 µM; with SK-MEL-28 melanoma, above 80.5 µM; in the experiment with MOLT-4 leukemia, above 100 µM. Further, the TGI in the experiment on HL-60(TB) leukemia is above 86.8 µM; in the experiment on T-47D breast, above 100 µM; in the experiment with A498 renal, above 26.7 µM; with NCI-H522 lung it was above 100 µM.
For the molecule `O=C(Nc1ccc(Oc2ccc(F)cc2)cc1)[C@@H]1C[C@@H](Cc2ccc(F)cc2)CN1C(=O)Cn1ccnn1`, the GI50 in the experiment with SF-268 CNS was 8.55 µM; in the experiment with K-562 leukemia, 5.61 µM; in the experiment on EKVX NSCLC, 7.79 µM; with OVCAR-4 ovarian it was 6.29 µM; with SK-MEL-28 melanoma, 6.72 µM; with MOLT-4 leukemia, 4.2 µM. Also, the GI50 in the experiment with HL-60(TB) leukemia was 3.7 µM; in the experiment with T-47D breast, 4320 nM; with A498 renal, 8.49 µM; with NCI-H522 lung, 5.01 µM. The TGI with SF-268 CNS was 33.8 µM; in the experiment on K-562 leukemia, above 65 µM; with EKVX NSCLC it was 40.4 µM; in the experiment with OVCAR-4 ovarian, above 69.9 µM; in the experiment with SK-MEL-28 melanoma, 20.6 µM; in the experiment with MOLT-4 leukemia, 31.6 µM. Further, the TGI was 17.8 µM with HL-60(TB) leukemia, 36.5 µM with T-47D breast, 27.9 µM in the experiment with A498 renal and 19.3 µM with NCI-H522 lung.
As to `COc1cnc2c(c1)C(=O)c1c-2n(CCCNC2=NCCS2)c(=O)c2cc(F)ccc12`, the GI50 with SF-268 CNS was 0.135 µM; with K-562 leukemia it was 0.249 µM; in the experiment with EKVX NSCLC, 0.897 µM; in the experiment on OVCAR-4 ovarian, 0.463 µM; in the experiment on SK-MEL-28 melanoma, 12.1 µM; in the experiment with MOLT-4 leukemia it was 0.0421 µM. The GI50 in the experiment with HL-60(TB) leukemia was 0.381 µM; in the experiment on T-47D breast, 76.2 nM; in the experiment on A498 renal, 0.264 µM; in the experiment with NCI-H522 lung it was 0.0381 µM. Besides, the TGI was 2.58 µM in the experiment on SF-268 CNS; 2.92 µM with K-562 leukemia; 24.5 µM in the experiment on EKVX NSCLC; 2.36 µM with OVCAR-4 ovarian; 24.9 µM in the experiment with SK-MEL-28 melanoma; 0.514 µM with MOLT-4 leukemia. Moreover, the TGI in the experiment on HL-60(TB) leukemia was found to be 1.56 µM; in the experiment on T-47D breast it was 17.2 µM; with A498 renal it was 1.63 µM; in the experiment with NCI-H522 lung, 1.28 µM.
In the case of `COc1cccc2c1-c1nc(N)c3c(OC)cccc3c1C2=O`, the TGI in the experiment on SF-268 CNS, in the experiment with K-562 leukemia, with EKVX NSCLC, in the experiment with OVCAR-4 ovarian, in the experiment with SK-MEL-28 melanoma and in the experiment with MOLT-4 leukemia was above 100 µM in each case. Besides, the TGI with HL-60(TB) leukemia was 72.5 µM; with T-47D breast, above 100 µM; in the experiment with A498 renal it was above 100 µM; in the experiment on NCI-H522 lung, above 100 µM.
For `O=C1CC(c2c[nH]c3ccc(F)cc23)C(=O)N1` (stereo not given), the GI50 in the experiment on SF-268 CNS, in the experiment on K-562 leukemia, in the experiment on EKVX NSCLC, in the experiment with OVCAR-4 ovarian, in the experiment on SK-MEL-28 melanoma and in the experiment with MOLT-4 leukemia was above 100 µM in each case. In addition, the GI50 was above 100 µM with HL-60(TB) leukemia, above 100000 nM in the experiment on T-47D breast, above 100 µM in the experiment on A498 renal and above 100 µM in the experiment on NCI-H522 lung. The TGI in the experiment with SF-268 CNS, in the experiment with K-562 leukemia, with EKVX NSCLC, in the experiment on OVCAR-4 ovarian, in the experiment on SK-MEL-28 melanoma and with MOLT-4 leukemia was above 100 µM each time. In addition, the TGI with HL-60(TB) leukemia, in the experiment with T-47D breast, in the experiment on A498 renal and with NCI-H522 lung was above 100 µM each time.
Turning to `COc1cc(CNCCCCCCN2C(=O)c3cccc4cccc(c34)C2=O)ccc1O`, the GI50 was 8.4 µM with SF-268 CNS; 2.91 µM in the experiment with K-562 leukemia; 13.1 µM in the experiment on EKVX NSCLC; 6.14 µM with OVCAR-4 ovarian; 2.06 µM in the experiment on SK-MEL-28 melanoma; 3.45 µM in the experiment with MOLT-4 leukemia. Besides, the GI50 was 3.33 µM in the experiment with HL-60(TB) leukemia, 2930 nM in the experiment with T-47D breast, 0.735 µM in the experiment with A498 renal and 2.32 µM in the experiment with NCI-H522 lung. The TGI in the experiment with SF-268 CNS was found to be 24.8 µM; with K-562 leukemia, 11 µM; in the experiment on EKVX NSCLC it was 29.8 µM; with OVCAR-4 ovarian, 19.2 µM; with SK-MEL-28 melanoma, 4.31 µM; in the experiment on MOLT-4 leukemia it was 16.2 µM. The TGI is 24.3 µM in the experiment on HL-60(TB) leukemia, 14.3 µM in the experiment on T-47D breast, 21 µM in the experiment with A498 renal and 7.97 µM in the experiment on NCI-H522 lung.
As to `COc1ccc(-c2cc(=O)c3c(O)c(OC)c(OC)c(OC)c3o2)cc1OC`, the TGI is 51.6 µM in the experiment with SF-268 CNS; above 100 µM in the experiment with K-562 leukemia; above 100 µM with EKVX NSCLC; above 100 µM in the experiment on OVCAR-4 ovarian; above 100 µM in the experiment with SK-MEL-28 melanoma; above 100 µM with MOLT-4 leukemia. In addition, the TGI with HL-60(TB) leukemia was above 100 µM; with T-47D breast it was above 100 µM; in the experiment on A498 renal, above 100 µM; in the experiment on NCI-H522 lung it was 43.9 µM.
On to `CC(=O)OCC1OC(n2c(=S)n(-c3ccc([N+](=O)[O-])cc3)c(=O)c3ccccc32)C(OC(C)=O)C(OC(C)=O)C1OC(C)=O` (stereo not given), for which the TGI was 62.1 µM and 44.7 µM with SF-268 CNS; above 100 µM in the experiment with K-562 leukemia; > 70 µM and 57.4 µM in the experiment on EKVX NSCLC; 60.3 µM and 40.9 µM in the experiment on OVCAR-4 ovarian; > 82.5 µM and 59.7 µM in the experiment on SK-MEL-28 melanoma; above 95.1 µM in the experiment with MOLT-4 leukemia. The TGI in the experiment on HL-60(TB) leukemia was 29.4 µM and 59.1 µM; in the experiment on T-47D breast, 74.3 µM; in the experiment on A498 renal, > 76.2 µM and 53.6 µM; in the experiment with NCI-H522 lung it was 45.3 µM and 33.7 µM. Besides, the GI50 was 10.7 µM and 27.2 µM in the experiment with K-562 leukemia; 18.9 µM and 28.2 µM in the experiment on EKVX NSCLC; 31 µM and 20.7 µM in the experiment on SK-MEL-28 melanoma; 4.13 µM and 25.2 µM in the experiment on HL-60(TB) leukemia; 21.9 µM in the experiment with A498 renal.

(Values after PubChem BioAssay (NCI).)
